GI50 and TGI data for one compound are collected here from PubChem BioAssay (NCI).

SMILES strings stand for the structures.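 In this assay, cells in 96-well plates receive the compound at five concentrations for 48 hours. Endpoints are linearly interpolated between the surrounding concentrations. Abbreviation: GI50, concentration required for 50% inhibition of growth. Definition used: TGI = concentration required for complete inhibition of growth.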 Some results are limits rather than exact numbers.

Some test systems named below: SNB-75 CNS; SF-268 CNS; BT-549 breast; HS 578T breast; RXF 393 renal; NCI-H226 lung.
What all share (assay): growth of human tumour cells (NCI), 48 h

Take `COc1ccc(-c2nc3cc(Cl)c(Cl)cc3n2CC(=O)N=Nc2c(O)[nH]c3ccc(Br)cc23)cc1`: the GI50 was 2.11 µM with SNB-75 CNS; 3.62 µM in the test with SF-268 CNS; 6.73 µM in the test on BT-549 breast; 2.05 µM in the test with HS 578T breast; 1.87 µM with RXF 393 renal; 3.75 µM in the test on NCI-H226 lung. The TGI in the test on SNB-75 CNS was 12.4 µM; with SF-268 CNS it was above 100 µM; in the test with BT-549 breast it was above 100 µM; in the test with HS 578T breast it was 5.72 µM; with RXF 393 renal it was 3.71 µM; in the test with NCI-H226 lung, above 100 µM.
